Molecular target: T1, human β3 adrenergic receptor (Homo sapiens, UniProt P13945)
T1 construct: expressed in transfected cells
Test: whole cell receptor coupled c-AMP assay (Emax relative to isoproterenol)
Type: cell-based
Settings: transfected CHO cells; for Emax: CHO
Outline: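 Stably transfected CHO DXB-11 cells expressing human β3 receptor incubated 20 min at 37 °C with compound in HBSS/HEPES pH 7.4 containing 1 mM IBMX. cAMP measured by SPA; four-parameter logistic fit, Emax = maximal response as % of isoproterenol maximum.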

[1] = % intrinsic activity: maximal response divided by isoproterenol maximal response times 100, average of at least 3 runs

T1 sequence (P13945 whole entry): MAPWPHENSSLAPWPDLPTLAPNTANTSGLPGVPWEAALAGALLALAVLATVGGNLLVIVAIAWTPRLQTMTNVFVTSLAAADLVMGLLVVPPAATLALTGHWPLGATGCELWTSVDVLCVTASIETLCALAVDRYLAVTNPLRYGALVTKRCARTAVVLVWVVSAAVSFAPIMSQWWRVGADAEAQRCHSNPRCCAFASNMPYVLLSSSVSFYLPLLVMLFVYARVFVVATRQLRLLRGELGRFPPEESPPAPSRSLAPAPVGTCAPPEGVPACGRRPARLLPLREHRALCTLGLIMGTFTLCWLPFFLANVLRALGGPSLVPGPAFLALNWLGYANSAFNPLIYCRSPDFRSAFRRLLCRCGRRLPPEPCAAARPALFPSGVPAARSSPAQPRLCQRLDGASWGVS

Row | Structure (SMILES) | Emax (%) ± SEM [1] | other results
1 | CC(C)(Cc1c[nH]c2ccc(F)cc12)NC[C@H](O)COc1ccccc1-c1ccon1 [Example 167] | 40.8 ± 1.3% | –
2 | CC(C)(Cc1c[nH]c2cc(/C=C/c3nnn[nH]3)ccc12)NC[C@H](O)COc1ccccc1-c1cccs1 [Example 252] | – | Emax [1]: 82.3 ± 4%
3 | CC(C)(Cc1c[nH]c2ccccc12)NC[C@H](O)COc1ccccc1-c1ncco1 [Example 33] | 75.9 ± 1.9% | –
4 | CC(C)(Cc1c[nH]c2ccccc12)NC[C@H](O)COc1ccccc1-c1cc(C#N)cs1.O=C(O)C(F)(F)F [Example 19] | 49.1 ± 4.6% | –
5 | CC(C)(Cc1c[nH]c2c(OCC(=O)O)cccc12)NC[C@H](O)COc1ccccc1-c1nccs1 [Example 234] | – | Emax [1]: 66.4 ± 6.4%
6 | CC(C)(Cc1c[nH]c2ccccc12)NC[C@H](O)COc1ccccc1-c1ccsc1.Cl [Example 51] | 58.3 ± 1.3% | –
7 | CC(C)(Cc1c[nH]c2c(-c3ccc(C(F)(F)F)cc3)cccc12)NC[C@H](O)COc1ccccc1-c1ccon1 [Example 105] | 69.1 ± 3.8% | –
8 | CC(C)(Cc1c[nH]c2c(CCC#N)cccc12)NC[C@H](O)COc1ccccc1-c1cccs1 [Example 144] | 73.3 ± 5.9% | –
9 | CC(C)(Cc1c[nH]c2c(NS(C)(=O)=O)cccc12)NC[C@H](O)COc1ccccc1-c1cccs1 [Example 27] | 81.0 ± 3.2% | –
10 | CC(C)(Cc1c[nH]c2c(Oc3ncccc3C#N)cccc12)NC[C@H](O)COc1ccccc1-c1ccon1 [Example 113] | 76.5 ± 3.0% | –
11 | CC(C)(Cc1c[nH]c2c(OCC3=NCCS3)cccc12)NC[C@H](O)COc1ccccc1-c1cccs1 [Example 231] | – | Emax [1]: 85 ± 4.9%
12 | CC(C)(Cc1c[nH]c2ccccc12)NC[C@H](O)COc1ccccc1-c1ccc(S(N)(=O)=O)s1 [Example 191] | 85.6 ± 7.8% | –
13 | CC(C)(Cc1c[nH]c2cc(F)ccc12)NC[C@H](O)COc1ccccc1-c1nccs1 [Example 159] | 53.0 ± 1.8% | –
14 | COC(=O)c1ccc(Oc2cccc3c(CC(C)(C)NC[C@H](O)COc4ccccc4-c4cccs4)c[nH]c23)nc1 [Example 117] | 67.6 ± 3.9% | –
15 | CC(C)(Cc1c[nH]c2cc(C(=O)O)ccc12)NC[C@H](O)COc1ccccc1-c1ccc(S(N)(=O)=O)s1 [Example 55] | 78.4 ± 0.2% | –
16 | CC(C)(Cc1c[nH]c2c(OCC(=O)[O-])cccc12)NC[C@H](O)COc1ccccc1-c1cccs1.[Na+] [Example 225] | 78.1 ± 4.6% | –
17 | CC(C)(Cc1c[nH]c2ccccc12)NC[C@H](O)COc1ccccc1-c1ccc(C#N)s1.Cl [Example 11] | 69.0 ± 2.3% | –
18 | CC(C)(NC[C@H](O)COc1ccccc1-c1cccs1)C(=O)N1CCc2ccccc21 [Example 192] | 55.6 ± 6.0% | –
19 | CC(C)(Cc1c[nH]c2c(/C=C/C(=O)O)cccc12)NC[C@H](O)COc1ccccc1-c1cccs1 [Example 227] | – | Emax [1]: 87.5 ± 7.5%
20 | C[C@H](Cn1ccc2cc(OCC#N)ccc21)NC[C@H](O)COc1ccccc1-c1cccs1 [Example 155] | 58.7 ± 13.4% | –
21 | COC(=O)c1ccc(-c2ccccc2OC[C@@H](O)CNC(C)(C)Cc2c[nH]c3ccccc23)s1 [Example 124] | 36.1 ± 7.6% | –
22 | CC(C)(Cc1c[nH]c2cc(C(=O)O)ccc12)NC[C@H](O)COc1ccccc1-c1ccsc1 [Example 62] | 63.8 ± 0.5% | –
23 | CC(C)(Cc1c[nH]c2c(-c3ccc(C(N)=O)cc3)cccc12)NC[C@H](O)COc1ccccc1-c1ccon1 [Example 103] | 57.1 ± 2.4% | –
24 | C[C@@H](CN1CCc2cc(F)c(Cl)cc21)NC[C@H](O)COc1ccccc1-c1cccs1 [Example 195] | – | Emax (% intrinsic activity relative to isoproterenol): 8.9%
25 | CC(C)(Cc1c[nH]c2c(OCC#N)cccc12)NCC(O)COc1ccccc1-c1ccoc1 (centres unmarked) [Example 5] | 66.0 ± 3.6% | –
26 | CC(C)(Cc1c[nH]c2c(OCCNS(C)(=O)=O)cccc12)NC[C@H](O)COc1ccccc1-c1cccs1 [Example 177] | 73.8 ± 1.5% | –

From patent US7208505B2, “β3 adrenergic agonists” (Eli Lilly and Company, priority 2001, dated 2007)
